In ChEMBL document CHEMBL1141773, “SERCA-inhibiting activity of C-19 terpenolides from Thapsia garganica and their possible biogenesis” (J Nat Prod, 2005):

What was measured:
[1] = tested on: Lytechinus pictus; test: Inhibition of SERCA in sea urchin eggs assessed as Ca2+ leak rate; design: scale not given: the % may be the effect or the level left
[2] = Inhibition of SERCA in sea urchin eggs assessed as Ca2+ leak rate at 10 uM relative to thapsigargin; design: species or system Lytechinus pictus
[3] = tested on: Lytechinus pictus; test: Inhibition of SERCA in sea urchin eggs assessed as Ca2+ leak rate at 10 uM

Structure (SMILES)	Activity [1]	Ki [2]	Activity [3]
C=C[C@@]1(C)CC[C@H]2[C@](C)(C(=O)OC)[C@H]3C=C4C=C(OC)OC(=O)[C@@H]1[C@@]42OC3=O	61.4%	–	–
C=C[C@@]1(C)CC[C@H]2[C@](C)(COC(C)=O)[C@H]3C=C4C=C(OC)OC(=O)[C@@H]1[C@@]42OC3=O	64.2%	–	–
C=C[C@@]1(C)CC[C@H]2C(C)(C)[C@H]3C=C4C=C(OC)OC(=O)[C@@H]1[C@@]42OC3=O	65.4%	–	–
C=C[C@]1(C)CC[C@H]2C(C)(C)[C@H]3C=C4C=C(OC)OC(=O)[C@@H]1[C@@]42OC3=O	65.4%	–	–
C/C=C(/C)C(=O)O[C@H]1C(C)=C2[C@H]([C@@H]1OC(=O)CCCCCCC)[C@@](C)(OC(C)=O)C[C@H](OC(=O)CCC)[C@@]1(O)[C@H]2OC(=O)[C@@]1(C)O [THAPSIGARGIN]	–	2 pM	81 RFU/min
